Like-named read-outs stand apart in the source and are kept apart here.
Legend:
[1] = tested on: IC; conditions: cited from earlier work
[2] = In vitro release of lidocaine from silicone tube devices (diffusion through wall / apertures); assay type: physicochemical; conditions: in vitro in water at about 37° C.; tubes with or without apertures
Protocol: A study was performed to determine the feasibility of delivering drug through the wall of a drug reservoir via diffusion. […] Some of the devices included an aperture formed through the tube wall, the aperture having a diameter of 150 μm. […] The devices were tested in vitro in water at about 37° C. […] Another study was performed to investigate the feasibility of delivering drug from a device through both a wall of a drug reservoir and from an aperture in the wall of the drug reservoir. Devices were formed form silicone tubes having a length of about 3 cm. […] The devices were tested in vitro in water at about 37° C.

Row | Structure (SMILES) | mean pain score ([1]; after second instillation) | mean pain score ([1]; immediately following treatment (prior to treatment 6.0)) | duration of effect ([1]; single instillation) | mean pain score ([1]; the next day) | release of drug from silicone tube [2]
1 | CCN(CC)CC(=O)Nc1c(C)cccc1C [lidocaine] | 1.2 | 1.8 | approximately 24 hours | 3.7 | –
2 | CCN(CC)CC(=O)Nc1c(C)cccc1C [lidocaine base] | – | – | – | – | can be released from a silicone tube without any apertures
